Read-outs that look alike come from different tables or passages of the source.
Columns and labels:
[1] = L-Glutathione capsules, stomach acid; cited from earlier work
[2] = tested on: subjects with autistic spectrum disorder; type: in vivo
Excerpt: The systemic nature of Autistic Spectrum Disorder (ASD) and the pervasive developmental delay (PDD) that may accompany it has led the inventor of the invention to view the complexity of these presentations by addressing them from a cell membrane perspective. Autistic spectrum disorder is a complex neurodevelopmental disorder, which has been investigated under an open clinical study rather than randomized, placebo, controlled and double blinded studies due to the constellation of symptoms in autistic spectrum disorder and multiple variables in regard to the oral and IV intervention. Each subject served as his or her own control for several reasons, 1) control pediatric subjects are difficult to obtain due to the use of intravenous therapy, 2) compliance in regard to a restricted carbohydrate diet and oral intake of supplements is limited in controls, and 3) matching two subjects with the same diagnosis, gender, age, development, metabolism and presentation is unrealistic in regard to autism and PDD. Presently there are no biological markers that exist to identify autistic spectrum disorder in addition to speculation that multiple, variable susceptibility genes, epigenetic effects, and environmental factors complicate the disorder we term autism.
The case studies represented below present the result of the treatment regimen on 300 subjects studied. Phospholipid re-modeling of these subjects were stimulated by supplying oral or IV phospholipids, principally PC, as well as balanced essential fatty acids and catalysts via nutritional and phamaneutical interventions.
A butterfly catheter with a 23-gauge needle was inserted into a vein of the antecubital region of one of the subjects' arms. A syringe containing the PC (phosphatidylcholine) composition in about 5 to about 10 cc volume was connected to the catheter by a flexible tube. A volume of blood equal to the total volume of the PC composition was drawn into the syringe and the syringe was gently agitated to mix the blood and PC composition. The blood/PC composition mixture was then infused (or “pushed”) as a lipid exchange into the subject over a period of two to three minutes.
A butterfly catheter with a 23-gauge needle was inserted into a vein of the antecubital region of one of the subjects' arms. The PC composition was infused first followed by a pre-prepared syringe containing about 2 mg (0.2 cc) to about 5 mg (0.5 cc) of Leucovorin over the period of 2-3 minutes.
A butterfly catheter with a 23-gauge needle was inserted into a vein of the antecubital region of one of the subjects' arms. The PC and Leucovorin compositions were infused first followed by a pre-prepared syringe containing about 1.5 to 6 cc of glutathione generally pre-mixed with an equal portion of sterile water (not saline). The composition containing glutathione was followed the IV PC with a pre-prepared syringe of glutathione using the same needle. This procedure avoids re-sticking the patient by infusing first the PC, then the Leucovorin and then the glutathione using the same butterfly catheter with a flexible tube infused (or “pushed”) into the subject over a period of two to five minutes.

[3] = tested on: mouse model of Bulbar ALS; details: oral administration; cited from earlier work
[4] = cited from earlier work
[5] = IV bolus doses of 7 grams, 14 grams and 21 grams; cited from earlier work

N[C@@H](CCC(=O)N[C@@H](CS)C(=O)NCC(=O)O)C(=O)O [Glutathione, N—(N-L-gamma-glutamyl-L-cysteinyl) glycine]
stability when taken orally [1]: very unstable and is destroyed by the stomach acid before it can be absorbed

O=C(O)[C@@H](S)[C@@H](S)C(=O)O [DMSA, meso-2,3-dimercaptosuccinic acid]
adverse outcome ([2]; Case Study Seven, 13 months of oral dosing by another physician): increased left side weakness

CCCC(=O)[O-].[Na+] [sodium butyrate]
acetylation of nuclear histone in neural tissues [3]: increased acetylation of nuclear histone in neural tissues | neurological phenotypes [3]: successfully ameliorated neurological phenotypes

Phosphatidylcholine
oral absorption ([4]; taken orally with meals): up to 90 % per 24 hrs | time over which blood levels peak ([4]; taken orally): 8 to 12 h | side effects [5]: no side effects were observed | clinical response ([2]; Case Study Five, 2 grams then 3 grams on consecutive weeks dripped over 3 hours): increased awareness/communication | clinical response ([2]; Case Study Seven, IV 500 mg two to three times weekly, after 6 weeks): dramatic improvement in response to others and the world around them | clinical response ([2]; Case Study Seven, IV lipid exchange 250 mg followed by 0.3 cc leucovorin and 1200 mg GSH, once weekly): positive responsive | clinical response ([2]; Case Study Seven, bolus dosing): increased language and awareness | clinical response ([2]; Case Study Six, IV 500 mg twice weekly, after 6 weeks): improvement in fatigue, stable mood, return of focus, improvement in memory, clearance of orange color on palms/soles, less headaches, improved learning | clinical response ([2]; Case Study Six, IV lipid exchange 250 mg once weekly with supplementation and diet): responsive | clinical response ([2]; Case Study Six, bolus 1.5 grams in D5W dripped over 2 hours followed by glutathione): improved cognition, increased circulation, improved eye contact and more demonstrative, loving behavior | tolerability ([2]; Case Study Six, bolus 3 grams dripped over 4 hours): well tolerated

Source: patent US20080254017A1, “Methods and compositions for treating symptomes of diseases related to imbalance of essential fatty acids” (priority 2006, published 2008)
